Drawing on US10570117B2, “Phenylimidazole compound” (Otsuka Pharmaceutical Factory, Inc., priority 2015, dated 2020), this text covers fold induction, solubility and melting point for 13 compounds.

Data set [1] concerns lipoprotein lipase (LPL) gene. Briefly: LPL mRNA elevating action (RT-PCR quantification of LPL mRNA in C2Cl2 cells). The settings on record: Mus musculus, 24 h, compound 10 μM, ratio relative to the amount of LPL mRNA in cells with DMSO only, read-out: Rate of increase in LPL mRNA. Type of data set: cell-based, mouse. In outline:
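Mouse striated-muscle C2Cl2 cells in DMEM with 10% FBS exposed to compounds at 10 μM for 24 h. LPL mRNA quantified by RT-PCR and real-time PCR (20 cycles), expressed as ratio to DMSO-only cells set at 1.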

Data set [2] is described as follows: Solubility in gastric juice or intestinal juice model fluid (precipitation method using DMSO). The settings on record: room temperature. Type of data set: physicochemical. In outline: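 Compound in DMSO added to JP disintegration test fluid 1 (pH 1.2) or fluid 2 (pH 6.8) and shaken 24 h at room temperature. After filtration, dissolved concentration (μg/mL) determined by UV absorbance against compound calibration curves.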

Where [3] appears, read: pH 1.2, simulated gastric fluid, kinetic from dmso stock, 1st fluid for Disintegration Test of Japanese Pharmacopoeia (pH: 1.2), read-out: Solubility (μg/mL) 1st fluid.
Where [4] appears, read: pH 6.8, kinetic from dmso stock, 2nd fluid for Disintegration Test of Japanese Pharmacopoeia (pH: 6.8), read-out: Solubility (μg/mL) 2nd fluid.

Values after ≈ are worked out from the molar mass of the structure shown. Like-named read-outs stand apart in the source and are kept apart here. Bounds are passed on as bounds.

As usually defined, the melting point is the temperature, or range, at which the solid turns liquid.

The compound `COc1cc(OCc2ncc(C(F)(F)F)cc2F)ccc1-c1[nH]c(CCC(F)(F)F)nc1Cl` [Example 394] yielded a melting point of 154 to 159 °C. The fold induction at 10 µM in data set [1] worked out at 2.39. The solubility at 24 h in data set [2] (setting [3]) is 96.3 µg/mL (≈ 193 µM). The solubility at 24 h in data set [2] (setting [4]) is below 0.4 µg/mL.
For `COc1cc(-c2[nH]c(CCC(F)(F)F)nc2Cl)ccc1OCc1ncc(C(F)(F)F)cc1F` [Example 395], the melting point was in the range of 116 to 119 °C. In addition, in data set [1], the fold induction at 10 µM amounted to 2.61. Besides, the solubility at 24 h in data set [2] (setting [3]) was 3.8 µg/mL (≈ 7.63 µM). For the same compound, the solubility at 24 h in data set [2] (setting [4]) is below 0.4 µg/mL.
For `COc1cc(-c2[nH]c(-c3ccc(F)nc3)nc2Cl)ccc1OC(C)c1ncc(C(F)(F)F)cc1F` (stereo not shown) [Example 396], in that order: 113 to 118 °C, 2.93, 28 µg/mL (≈ 54.8 µM) and below 0.4 µg/mL.
Taken in the same sequence, the figures for `Fc1cc(C(F)(F)F)cnc1COc1ccc(-c2[nH]c(C3CC(F)(F)C3)nc2Cl)cc1` [Example 397] were 162 to 167 °C, 4.58, 15.9 µg/mL (≈ 34.4 µM) and below 0.3 µg/mL.
For `COc1cc(OCc2ncc(C(F)(F)F)cc2F)ccc1-c1[nH]c(C2CC(F)(F)C2)nc1C` [Example 399], in that order: 172 to 174 °C, 4.68, 54.1 µg/mL (≈ 115 µM) and 3.4 µg/mL (≈ 7.21 µM).
Regarding `COc1cc(OCc2ncc(C(F)(F)F)cc2F)ccc1-c1[nH]c(C2CC(F)(F)C2)nc1Br` [Example 400], the melting point is 192 to 195 °C. The fold induction at 10 µM in data set [1] stood at 4.49. Besides, the solubility at 24 h in data set [2] (setting [3]) was 97.1 µg/mL (≈ 181 µM). Also, the solubility at 24 h in data set [2] (setting [4]) amounted to 0.6 µg/mL (≈ 1.12 µM).
Compound `Oc1cc(OCc2ncc(C(F)(F)F)cc2F)ccc1-c1cnc(-c2ccc(F)nc2)[nH]1` [Example 406, 5-[[3-fluoro-5-(trifluoromethyl)pyridin-2-yl]methoxy]-2-[2-(6-fluoropyridin-3-yl)-1H-imidazol-5-yl]phenol] registered a melting point of 202 to 207 °C. The fold induction at 10 µM in data set [1] came out at 2.62. The solubility at 24 h in data set [2] (setting [3]) is above 90 µg/mL. In addition, in data set [2] (setting [4]), the solubility at 24 h is 12.4 µg/mL (≈ 27.7 µM).
For `Oc1cc(OCc2ncc(C(F)(F)F)cc2F)ccc1-c1[nH]c(-c2ccc(F)nc2)nc1Cl` [Example 407], in that order: 229 to 233 °C (dec.), 1.68, 2.7 µg/mL (≈ 5.59 µM) and below 0.3 µg/mL.
Taken in the same sequence, the figures for `Oc1cc(OCc2ncc(C(F)(F)F)cc2F)ccc1-c1[nH]c(-c2ccc(F)nc2)nc1Br` [Example 408] were 202 to 204 °C, 1.24, 1.9 µg/mL (≈ 3.6 µM) and below 0.4 µg/mL.
For `COc1cc(OCc2ccc(C(F)(F)F)nc2)ccc1-c1[nH]c(-c2ccc(F)nc2)nc1C#N` [Example 409], in that order: 212 to 219 °C, 1.34, 1.3 µg/mL (≈ 2.77 µM) and 1.9 µg/mL (≈ 4.05 µM).
In the case of `COc1cc(OCc2ccc(C(F)(F)F)nc2)ccc1-c1nc(-c2ccc(F)nc2)n(C)c1C#N` [Example 410], the melting point fell in the range of 165 to 167 °C. The fold induction at 10 µM in data set [1] was determined as 0.42. The solubility at 24 h in data set [2] (setting [3]) is 1.1 µg/mL (≈ 2.28 µM). Moreover, in data set [2] (setting [4]), the solubility at 24 h is below 0.3 µg/mL.
In turn, `COc1cc(OCc2ncc(C(F)(F)F)cc2F)ccc1-c1[nH]c(-c2ccc(F)nc2)nc1C(F)(F)F` [Example 411, 3-fluoro-2-[[4-(2-(6-fluoropyridin-3-yl)-4-(trifluoromethyl)-1H-imidazol-5-yl)-3-methoxyphenoxy]methyl]-5-(trifluoromethyl)pyridine] gave a melting point of 181 to 182 °C. Also, in data set [1], the fold induction at 10 µM came out at 1.62. Also, the solubility at 24 h in data set [2] (setting [3]) is 3.1 µg/mL (≈ 5.84 µM). The solubility at 24 h in data set [2] (setting [4]) was found to be 3 µg/mL (≈ 5.66 µM).
Taken in the same sequence, the figures for `COc1cc(OCc2ccc(C(F)(F)F)nc2)ccc1-c1[nH]c(-c2ccc(F)nc2)nc1C(F)(F)F` [Example 412] were 222 to 224 °C, 1.41, 0.6 µg/mL (≈ 1.17 µM) and 1.5 µg/mL (≈ 2.93 µM).
